{"source": "paper PMC3949122", "about": "(Current biology : CB, 2014)", "key": {"[1]": {"molecular_target": "TRPA1 (Homo sapiens, UniProt O75762)", "sequence (O75762 whole entry)": "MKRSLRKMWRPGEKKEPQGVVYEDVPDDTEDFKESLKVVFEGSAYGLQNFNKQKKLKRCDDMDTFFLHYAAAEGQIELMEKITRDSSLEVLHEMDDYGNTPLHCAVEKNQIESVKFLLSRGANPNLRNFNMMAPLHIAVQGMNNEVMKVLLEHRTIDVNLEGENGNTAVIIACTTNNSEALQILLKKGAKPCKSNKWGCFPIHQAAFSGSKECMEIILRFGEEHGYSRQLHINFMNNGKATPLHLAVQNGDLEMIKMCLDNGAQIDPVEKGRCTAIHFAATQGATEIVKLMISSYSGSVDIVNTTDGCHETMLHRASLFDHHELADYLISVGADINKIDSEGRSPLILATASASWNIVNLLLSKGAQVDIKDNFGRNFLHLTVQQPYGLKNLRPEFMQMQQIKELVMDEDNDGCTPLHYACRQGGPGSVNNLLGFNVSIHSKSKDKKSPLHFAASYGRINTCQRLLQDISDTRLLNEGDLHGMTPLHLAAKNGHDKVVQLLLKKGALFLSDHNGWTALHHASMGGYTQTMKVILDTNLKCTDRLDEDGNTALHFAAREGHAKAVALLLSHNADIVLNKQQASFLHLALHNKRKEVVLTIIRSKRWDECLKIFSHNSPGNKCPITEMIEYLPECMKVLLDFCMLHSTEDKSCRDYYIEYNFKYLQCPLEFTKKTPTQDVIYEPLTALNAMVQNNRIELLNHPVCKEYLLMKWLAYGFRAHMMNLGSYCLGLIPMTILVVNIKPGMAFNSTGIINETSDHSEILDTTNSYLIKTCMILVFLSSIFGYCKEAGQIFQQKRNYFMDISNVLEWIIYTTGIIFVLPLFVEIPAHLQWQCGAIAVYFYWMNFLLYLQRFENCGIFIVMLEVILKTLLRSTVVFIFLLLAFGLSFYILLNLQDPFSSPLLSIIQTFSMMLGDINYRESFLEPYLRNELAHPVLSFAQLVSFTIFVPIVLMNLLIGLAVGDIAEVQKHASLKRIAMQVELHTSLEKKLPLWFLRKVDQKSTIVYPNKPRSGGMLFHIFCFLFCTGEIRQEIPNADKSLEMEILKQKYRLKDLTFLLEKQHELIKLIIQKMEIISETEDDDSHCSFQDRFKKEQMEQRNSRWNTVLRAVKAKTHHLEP", "format": "cell-based", "details": "alanine scanning of t-ProTx-I; label = residue mutated to Ala"}, "[2]": {"test_system": "NaV1.2", "format": "cell-based", "details": "membrane-tethered, co-expressed; voltage-induced currents"}, "[3]": {"test_system": "TRPA1", "details": "cited from earlier work; for activation of TRPA1 via covalent modification: ref [40]-[44]; for activation of TRPA1 by allosteric modulators: interact with transmembrane domains, not the intracellular C-terminus, ref [41], [45], [46]"}}, "note": "Read-outs that look alike come from different tables or passages of the source. Where no end group is shown, it is not given here.", "data": [{"compound": "t-ProTx-I (S22A) (ECRYWLGGCSAGQTCCKHLVCARRHGWCVWDGTFS; ends and bridges not checked; also: membrane tether; UniProt P83480 1-35, looked up, variant S22A)", "values": [{"measurement": "residue whose mutation to alanine reduces inhibition of TRPA1 (binding surface)", "setting": "[1]", "result": "in common between the two binding surfaces"}, {"measurement": "activity of t-ProTx-I alanine mutant against NaV1.2 / voltage-gated sodium channels", "setting": "[2]", "result": "strongly active"}]}, {"compound": "Clc1ccccc1C(c1ccccc1)(c1ccccc1)n1ccnc1", "note": "[clotrimazole]", "values": [{"measurement": "activation of TRPA1", "setting": "[3]; ref [7]", "result": "activated"}]}, {"compound": "CN(C)CCCN1c2ccccc2Sc2ccc(Cl)cc21", "note": "[chlorpromazine]", "values": [{"measurement": "activation of TRPA1", "setting": "[3]; ref [8]", "result": "activated"}]}, {"compound": "C=CCN=C=S", "note": "[allyl isothiocyanate]", "values": [{"measurement": "activation of TRPA1 via covalent modification", "setting": "[3]", "result": "activates TRPA1"}, {"measurement": "activation of TRPA1", "setting": "[3]; ref [5], [6]", "result": "activated"}]}, {"compound": "OCl", "note": "[hypochlorite]", "values": [{"measurement": "activation of TRPA1 via covalent modification", "setting": "[3]", "result": "activates TRPA1"}]}, {"compound": "OO", "note": "[hydrogen peroxide]", "values": [{"measurement": "activation of TRPA1 via covalent modification", "setting": "[3]", "result": "activates TRPA1"}]}, {"compound": "Oc1c(I)cc(Cl)c2cccnc12", "note": "[clioquinol]", "values": [{"measurement": "activation of TRPA1", "setting": "[3]; ref [9]", "result": "activated"}]}, {"compound": "CCCCCC(O)/C=C/C=O", "note": "(stereo not shown) [4-hydroxy-nonenal]", "values": [{"measurement": "activation of TRPA1 via covalent modification", "setting": "[3]", "result": "activates TRPA1"}]}, {"compound": "C=CCS[S+]([O-])CC=C", "note": "(stereo not shown) [allicin]", "values": [{"measurement": "activation of TRPA1", "setting": "[3]; ref [5], [6]", "result": "activated"}]}, {"compound": "CC1CCC(C(C)C)C(O)C1", "note": "(stereo not shown) [menthol]", "values": [{"measurement": "activation of TRPA1 by allosteric modulators", "setting": "[3]", "result": "allosteric modulators"}]}, {"compound": "Cc1ccc(C(C)C)cc1O", "note": "[carvacrol]", "values": [{"measurement": "activation of TRPA1 by allosteric modulators", "setting": "[3]", "result": "allosteric modulators"}]}]}
